Test results published in PMC10698726 (Molecular Pharmaceutics, 2023).
Like-named read-outs stand apart in the source and are kept apart here.

Tests used:
OCT1 = target: T1, OCT1 (Homo sapiens, UniProt O15245); test: Inhibition of model substrate uptake in OCT1-overexpressing HEK293 cells; format: cell-based; design: expressed in transfected cells; host or cells: HEK293; conditions: 5 min; for inhibition at 5 min, 20 μM: human, OCT1-overexpressing HEK293 cells; for inhibition at 5 min, 20 μM / (S,S)-Ethambutol inhibition [%] / ASP+ inhibition [%] / Sumatriptan inhibition [%]: OCT1, 20 μM inhibitor
T1 sequence (O15245 1-554): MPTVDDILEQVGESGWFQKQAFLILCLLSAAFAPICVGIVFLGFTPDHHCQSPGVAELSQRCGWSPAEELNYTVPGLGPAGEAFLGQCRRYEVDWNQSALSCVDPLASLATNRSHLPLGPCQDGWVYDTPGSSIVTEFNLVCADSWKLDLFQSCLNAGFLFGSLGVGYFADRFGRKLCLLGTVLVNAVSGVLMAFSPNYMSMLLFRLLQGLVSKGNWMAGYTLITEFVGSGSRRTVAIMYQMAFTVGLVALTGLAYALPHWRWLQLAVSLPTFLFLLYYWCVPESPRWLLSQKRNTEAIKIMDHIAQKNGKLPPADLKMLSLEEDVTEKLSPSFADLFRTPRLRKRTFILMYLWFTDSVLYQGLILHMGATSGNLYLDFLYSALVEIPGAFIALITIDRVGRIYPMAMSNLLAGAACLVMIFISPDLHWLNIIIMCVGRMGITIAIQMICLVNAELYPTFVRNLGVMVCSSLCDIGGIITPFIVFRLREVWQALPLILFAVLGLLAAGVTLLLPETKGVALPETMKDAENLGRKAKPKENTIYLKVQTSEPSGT
Procedure: Koepsell and Gorbulev (University of Würzburg, Germany).
Fluorescence quantification was performed in technical duplicates.

OCT3 = target: T2, OCT3 (Homo sapiens, UniProt O75751); test: Inhibition of model substrate uptake in OCT3-overexpressing HEK293 cells; format: cell-based
T2 construct: expressed in transfected cells; host or cells: HEK293
T2 sequence (O75751 1-556): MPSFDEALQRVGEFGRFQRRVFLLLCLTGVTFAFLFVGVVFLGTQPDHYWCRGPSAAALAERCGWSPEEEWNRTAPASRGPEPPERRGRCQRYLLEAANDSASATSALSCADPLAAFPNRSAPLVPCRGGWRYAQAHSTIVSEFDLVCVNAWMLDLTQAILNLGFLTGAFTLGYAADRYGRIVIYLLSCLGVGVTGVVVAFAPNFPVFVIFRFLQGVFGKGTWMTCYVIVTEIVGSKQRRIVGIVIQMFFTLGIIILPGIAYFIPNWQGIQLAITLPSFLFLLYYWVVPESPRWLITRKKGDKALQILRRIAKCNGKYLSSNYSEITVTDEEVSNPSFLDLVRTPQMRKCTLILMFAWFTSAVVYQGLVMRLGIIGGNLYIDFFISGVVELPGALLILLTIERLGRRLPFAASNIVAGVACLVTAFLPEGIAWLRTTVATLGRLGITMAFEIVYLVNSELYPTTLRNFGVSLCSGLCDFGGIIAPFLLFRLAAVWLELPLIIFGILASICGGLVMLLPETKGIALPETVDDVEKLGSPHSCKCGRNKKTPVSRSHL
Outline: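 Transporter-overexpressing HEK293 cells were incubated 5 min in HBSS+ with 2 μM model substrate, with or without 20 μM inhibitor or increasing inhibitor concentrations. Uptake was read as ASP^+ fluorescence or by LC–MS/MS, with empty-vector uptake subtracted. IC50 came from a Hill fit of activity versus log concentration.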

OCT2 = target: T3, OCT2 (Homo sapiens, UniProt O15244); test: Inhibition of model substrate uptake in OCT2-overexpressing HEK293 cells; conditions: for inhibition at 5 min, 20 μM: human, OCT2-overexpressing HEK293 cells; for inhibition at 5 min, 20 μM / (S,S)-Ethambutol inhibition [%] / ASP+ inhibition [%] / N-Ethyllidocaine inhibition [%]: OCT2, 20 μM inhibitor
T3 sequence (O15244 1-555): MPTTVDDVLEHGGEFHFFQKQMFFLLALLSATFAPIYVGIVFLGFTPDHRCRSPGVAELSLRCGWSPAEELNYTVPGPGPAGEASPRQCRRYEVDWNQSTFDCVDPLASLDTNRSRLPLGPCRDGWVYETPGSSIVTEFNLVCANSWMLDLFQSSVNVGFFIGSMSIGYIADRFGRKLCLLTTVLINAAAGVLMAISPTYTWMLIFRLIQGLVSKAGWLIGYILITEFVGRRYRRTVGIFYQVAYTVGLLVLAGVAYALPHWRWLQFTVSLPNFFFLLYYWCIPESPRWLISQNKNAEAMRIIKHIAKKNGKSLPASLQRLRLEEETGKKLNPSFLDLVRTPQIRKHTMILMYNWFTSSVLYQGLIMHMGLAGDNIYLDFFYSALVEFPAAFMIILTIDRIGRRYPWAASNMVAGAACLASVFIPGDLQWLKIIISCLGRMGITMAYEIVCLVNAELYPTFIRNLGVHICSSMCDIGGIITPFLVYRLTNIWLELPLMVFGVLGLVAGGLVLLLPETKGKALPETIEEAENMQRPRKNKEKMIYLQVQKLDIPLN

[1] = pH 7.4, probe (S,S)-ethambutol (2 μM), (S,S)-Ethambutol inhibition [%], 2 μM (S,S)-ethambutol
[2] = pH 7.4, probe ASP+ (2 μM), 2 μM ASP+, mean of three experiments, read-out: ASP+ inhibition [%]
[3] = pH 7.4, probe sumatriptan (2 μM), 2 μM sumatriptan, read-out: Sumatriptan inhibition [%]
[4] = pH 7.4, probe (S,S)-ethambutol (2 μM), (S,S)-Ethambutol inhibition [%], 2 μM (S,S)-ethambutol, 5 min
[5] = pH 7.4, probe ASP+ (2 μM), ASP+ inhibition [%], 2 μM ASP+, 5 min
[6] = pH 7.4, probe N-ethyllidocaine (2 μM), N-Ethyllidocaine inhibition [%], 2 μM N-ethyllidocaine, 5 min
[7] = 2 μM ASP+, mean of three experiments
[8] = HEK293, 5 min, read-out: (S)-Zolmitriptan inhibition [%], OCT3, 20 μM inhibitor, 2 μM (S)-zolmitriptan, 5 min
[9] = HEK293, 5 min, read-out: (S,S)-Ethambutol inhibition [%], OCT3, 20 μM inhibitor, 2 μM (S,S)-ethambutol, 5 min
[10] = HEK293, OCT3, 20 μM inhibitor, 2 μM ASP+, 5 min, read-out: ASP+ inhibition [%]
[11] = OCT3, 20 μM inhibitor, 2 μM (S)-zolmitriptan, 5 min
[12] = OCT3, 20 μM inhibitor, 2 μM (S,S)-ethambutol, 5 min
[13] = OCT3, 20 μM inhibitor, 2 μM ASP+, 5 min

SMILES | inhibition at 5 min, 20 μM (OCT1; [1]) | inhibition at 5 min, 20 μM (OCT1; [2]) | inhibition at 5 min, 20 μM (OCT1; [3]) | inhibition at 5 min, 20 μM (OCT2; [4]) | inhibition at 5 min, 20 μM (OCT2; [5]) | inhibition at 5 min, 20 μM (OCT2; [6]) | (S,S)-Ethambutol inhibition [%] (OCT1; 2 μM (S,S)-ethambutol) | ASP+ inhibition [%] (OCT1; [7]) | Sumatriptan inhibition [%] (OCT1; 2 μM sumatriptan) | (S,S)-Ethambutol inhibition [%] (OCT2; 2 μM (S,S)-ethambutol, 5 min) | ASP+ inhibition [%] (OCT2; 2 μM ASP+, 5 min) | N-Ethyllidocaine inhibition [%] (OCT2; 2 μM N-ethyllidocaine, 5 min) | inhibition at 20 µM (OCT3; [8]) | inhibition at 20 µM (OCT3; [9]) | inhibition at 20 µM (OCT3; [10]) | (S)-Zolmitriptan inhibition [%] (OCT3; [11]) | (S,S)-Ethambutol inhibition [%] (OCT3; [12]) | ASP+ inhibition [%] (OCT3; [13]) | other results
CNCC[C@H](Oc1cccc2ccccc12)c1cccs1 [(S)-Duloxetine] | 86.9% | 43.3% | 88.5% | 19.4% | 70.2% | 46.1% |  |  |  |  |  |  |  |  |  |  |  |  | inhibition at 20 µM (OCT3; HEK293, 5 min, read-out: (S)-Zolmitriptan inhibition [%]): 19.6%; inhibition at 20 µM (OCT3; HEK293, 5 min, read-out: (S,S)-Ethambutol inhibition [%]): 25.2%; inhibition at 20 µM (OCT3; HEK293, read-out: ASP+ inhibition [%]): 2.4%; IC50 (OCT2; IC50): 16.6 µM
CNCC[C@H](Oc1ccc(C(F)(F)F)cc1)c1ccccc1 [(S)-Fluoxetine] |  |  |  |  |  |  | 78.6% | 47.7% | 82.3% | 6.4% | 56.6% | 28.7% |  |  |  |  |  |  | (S)-Zolmitriptan inhibition [%] (OCT3): 13.8; (S,S)-Ethambutol inhibition [%] (OCT3): 12.3; ASP+ inhibition [%] (OCT3): -3.1
CC(C)Cc1ccc([C@H](C)C(=O)O)cc1 [(S)-Ibuprofen] | -10.6% | 8.8% | -3.4% | 14.5% | 10.9% | 10.4% |  |  |  |  |  |  | -0.8% | 11.3% | 12.9% |  |  |  | 
Cc1cccc(C)c1OC[C@H](C)N [(S)-Mexiletine] | 78% | 40.1% | 84.3% | 58.7% | 52.9% | 51.3% |  |  |  |  |  |  | 30% | 11.8% | -6.6% |  |  |  | 
NC[C@@H](O)c1ccc(O)c(O)c1 [(S)-Norepinephrine] |  |  |  |  |  |  | 6.1% | -3.3% | 6.6% | 5.1% | 20.5% | 7.1% |  |  |  | -6.6% | 12.5% | -3.5% | 
CCN(CC)CC#CCOC(=O)[C@@](O)(c1ccccc1)C1CCCCC1 [(S)-Oxybutynine] |  |  |  |  |  |  | 96.3% | 59.3% | 83.5% | 24.5% | 92.8% | 48.6% |  |  |  | 65.2% | 75.7% | 40.5% | IC50 (OCT1; IC50, OCT1, Table S5, 2 μM ASP+ or ethambutol as model substrate): 141 µM; IC50 (OCT3; IC50, OCT3, Table S5, 2 μM ASP+ or ethambutol as model substrate, 5 min): 40 µM; IC50 (OCT2; IC50, OCT2, Table S5, 2 μM ASP+ as model substrate, 5 min): 20.1 µM
CNC[C@@H](O)c1cccc(O)c1 [(S)-Phenylephrine] | 6.2% | 5.2% | -5.1% | 5.5% | 5.4% | -2.7% |  |  |  |  |  |  | -3.9% | 5.6% | 2.7% |  |  |  | 
CC(C)NC[C@H](O)COc1cccc2ccccc12 [(S)-Propranolol] |  |  |  |  |  |  | 74.3% | 40.6% | 82.8% | 28.4% | 57.3% | 32.4% |  |  |  | 38.2% | 32.0% | -2.9% | IC50 (OCT3; OCT3, Table 1, read-out: IC50): 69 µM
C#CCN[C@H]1CCc2ccccc21 [(S)-Rasagiline] |  |  |  | 57% | 59.6% | 59.5% | 37.5% | 6.9% | 50.6% |  |  |  |  |  |  | 6.7% | 8.8% | -7.7% | 
CC(C)(C)NC[C@@H](O)c1ccc(O)c(CO)c1 [(S)-Salbutamol] |  |  |  |  |  |  | 9.3% | 6.1% | -10.2% | 3.0% | -2.8% | -17.4% |  |  |  | -3.4% | 14.5% | 1.3% | 
